By IC50 is commonly meant the concentration needed to halve the response being measured.

The source of these data is patent US10905769B2, “Peptide and peptide mimetic binding antagonists of polo-like kinase 1 polo box domain and methods of use” (priority 2015, dated 2021).

Read-outs that look alike come from different tables or passages of the source. Peptide text beside a SMILES is read from it.

The target in test [1] is T1, Plk1 PBD (Homo sapiens, UniProt P53350). Briefly: biochemical. The format is binding. The arrangement: and Plk1 PBD (Plasmid #41162) (45) linked to a 3× myc tagged; host or cells: HEK293T, crude cytosolic lysate. The settings on record: Cell Lysate ELISA IC50 (μM). As to the method:
HEK293T cells were plated on 10 cm culture dishes at 4M cells per plate. Following 24 h, the cells were transfected with 10 μg of plasmid DNA using 20 μL of TurboFect transfection reagent (Pierce Biotechnology) according to the manufacturer's instructions. Following 24 h, the cells were harvested using trypsin, washed with phosphate-buffered saline (PBS) 7.4 buffer, and lysed in lysis buffer (PBS 7.4+0.5% NP-40+protease/phosphatase inhibitor cocktail (Pierce Biotechnology)) using 3 freeze/thaw cycles. The lysed suspension was centrifuged at 10,000×G for 10 minutes to pellet membrane proteins and nuclei. The supernatant was removed to provide a crude cytosolic lysate containing expressed myc-tagged Plk1 or Plk1 PBD. The total protein concetration was determined using a Bicinchoninic Acid (BCA) assay kit (Pierce Biotechnology).
All assay steps were performed at room temperature with gentle shaking. A biotinylated phosphopeptide (sequence: Biotin-Ahx-PMQS(pT)PLN-NH2) (46-48) was diluted with PBS 7.4 to 1 μM (from a 10 mM dimethylsulfoxide (DMSO) stock solution) and loaded onto the wells of a 96-well Neutravidin-coated plate (Pierce Biotechnology) at 100 μL per well for 1 hour. The wells were washed once with 150 μL PBST (PBS 7.4+0.05% Tween-20), and then 100 μL of 1% bovine serum albumin (BSA) in PBS 7.4 (blocking buffer) were added for 1 hour. The cytosolic lysate containing myc-tagged protein was diluted to 300 μg/mL in PBS 7.4 containing protease/phosphatase inhibitors (Pierce Biotechnology), mixed with competitive inhibitor (from a 10× stock in 5% DMSO/PBS), and allowed to pre-incubate for 1 h (100 μL per well in a 96-well plate, 30 μg total protein). The blocked ELISA plate was washed 2× with PBST (150 μL) and the pre-incubated lysates were added to the plate to incubate for 1 hour. The wells were washed 4× with PBST (150 μL), then probed with anti-myc primary antibody (1:1500 dilution for assays that include macrocyclic peptidomimetic ligand of the present disclosure and 1:3000 dilution for all other assays, mouse monoclonal, Pierce Biotechnology) for 1 hour. […] The wells were then washed 5× with PBST (150 μL) and incubated with Turbo TMB-ELISA solution (Pierce Biotechnology) until the desired absorbance is reached (5-10 minutes). The reaction was quenched by the addition of 2M aq. H2SO4 and the absorbance was measured at 450 nm using a BioTek Synergy 2 96-well plate reader.
Compounds were evaluated for inhibition of Plk1 PBD binding to a pThrcontaining peptide by ELISA in cell lysates and by inhibition of cell proliferation in HeLa cells. Pmab=2(S)-amino-3(R)-methyl-4-phosphonobutanoic acid.
Target sequence in this assay (P53350 326-603 limits assumed): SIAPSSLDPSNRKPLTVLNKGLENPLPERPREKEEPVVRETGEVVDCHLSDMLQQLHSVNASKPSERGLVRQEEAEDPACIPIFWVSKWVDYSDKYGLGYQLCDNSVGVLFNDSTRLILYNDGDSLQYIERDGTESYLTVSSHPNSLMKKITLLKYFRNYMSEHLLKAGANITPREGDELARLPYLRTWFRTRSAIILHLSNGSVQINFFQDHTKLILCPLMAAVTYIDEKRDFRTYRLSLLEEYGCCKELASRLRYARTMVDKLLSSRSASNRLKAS

Another test has as its target T2, full-length Plk1 (Homo sapiens, UniProt P53350).
T2 construct: Plasmids encoding full length Plk1 (Plasmid #41160); host or cells: HEK293T, crude cytosolic lysate
Briefly: ELISA inhibition assay: full-length Plk1 binding to immobilized pThr-containing peptide. The settings on record: FIG. 5A/5B. For orientation: In an ELISA, binding on a coated surface is turned into a signal by an enzyme label.

The target of test [2] is T1, Plk1 PBD. Type of test: binding. The arrangement: host or cells: HEK293T, crude cytosolic lysate. The settings on record: average ± SEM from five independent experiments.
Target sequence in this assay (P53350 whole entry): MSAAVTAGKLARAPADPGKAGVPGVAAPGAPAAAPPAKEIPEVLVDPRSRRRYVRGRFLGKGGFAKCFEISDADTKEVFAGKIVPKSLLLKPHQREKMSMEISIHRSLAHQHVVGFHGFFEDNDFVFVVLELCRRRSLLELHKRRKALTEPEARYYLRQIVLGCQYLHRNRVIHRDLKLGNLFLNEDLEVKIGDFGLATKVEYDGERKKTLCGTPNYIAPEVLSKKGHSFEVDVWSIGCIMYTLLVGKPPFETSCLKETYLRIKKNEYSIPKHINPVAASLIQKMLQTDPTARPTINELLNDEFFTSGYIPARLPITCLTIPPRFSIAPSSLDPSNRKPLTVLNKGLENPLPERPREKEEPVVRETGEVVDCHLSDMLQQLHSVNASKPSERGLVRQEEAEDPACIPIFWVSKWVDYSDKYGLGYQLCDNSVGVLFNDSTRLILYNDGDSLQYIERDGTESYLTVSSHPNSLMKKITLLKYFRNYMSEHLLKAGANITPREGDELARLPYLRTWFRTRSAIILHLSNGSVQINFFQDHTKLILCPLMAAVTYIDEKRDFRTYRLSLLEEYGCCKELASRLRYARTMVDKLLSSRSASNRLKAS
Method: All assay steps were performed at room temperature with gentle shaking. A biotinylated phosphopeptide (sequence: Biotin-Ahx-PMQS(pT)PLN-NH2) (46-48) was diluted with PBS 7.4 to 1 μM (from a 10 mM dimethylsulfoxide (DMSO) stock solution) and loaded onto the wells of a 96-well Neutravidin-coated plate (Pierce Biotechnology) at 100 μL per well for 1 hour. The wells were washed once with 150 μL PBST (PBS 7.4+0.05% Tween-20), and then 100 μL of 1% bovine serum albumin (BSA) in PBS 7.4 (blocking buffer) were added for 1 hour. The cytosolic lysate containing myc-tagged protein was diluted to 300 μg/mL in PBS 7.4 containing protease/phosphatase inhibitors (Pierce Biotechnology), mixed with competitive inhibitor (from a 10× stock in 5% DMSO/PBS), and allowed to pre-incubate for 1 h (100 μL per well in a 96-well plate, 30 μg total protein). […] The wells were then washed 5× with PBST (150 μL) and incubated with Turbo TMB-ELISA solution (Pierce Biotechnology) until the desired absorbance is reached (5-10 minutes). […] H2SO4 and the absorbance was measured at 450 nm using a BioTek Synergy 2 96-well plate reader.
Absorbance was plotted versus concentration (log M) and fit to a non-linear regression using GraphPad Prism 6 software (model: log(inhibitor) vs. response—Variable slope (four parameters)) to provide IC50 values. […]
Where [3] appears, read: Table 7, compounds 2 and 3 tested simultaneously for direct comparison.

T2 sequence (P53350 whole entry): as above

As for `CC(=O)N1CCCC1C(=O)N[C@@H](CC(C)C)C(=O)N[C@@H](Cc1cncn1CCc1ccccc1)C(=O)N[C@@H](CO)C(=O)NC(C(N)=O)C(C)OP(=O)(O)O` (stereo in doubt) [compound 3], the IC50 at Plk1 PBD [1] (Table 6) turned out to be 0.017 µM; on Plk1 PBD [1] (setting [3]) it was 0.023 µM.

Consider `CC(=O)N1CCC[C@H]1C(=O)N[C@@H](CC(C)C)C(=O)N[C@H]1C[C@H](CCCCCCCCc2ccccc2)C(=O)NCCC[C@@H](C(N)=O)NC(=O)[C@H]([C@@H](C)OP=O)NC(=O)[C@H](CO)NC1=O` (some centres unmarked) [15a, cPLE*SpTO] (HELM PEPTIDE1{[ac].P.L.[O=C([C@H](C[C@H](CCCCCCCCc1ccccc1)C(=O)[*:3])N[*:1])[*:2]].S.[C[C@@H](OP=O)[C@H](N[*:1])C(=O)[*:2]].[Orn].[am]}$PEPTIDE1,PEPTIDE1,4:R3-7:R3$$$V2.0), for which, on full-length Plk1, the “inhibitory potency in competitive ELISA versus parent peptide 1 (4j)” value was “improved potencies versus the parent peptide 1”.

Consider `CC(=O)N1CCC[C@H]1C(=O)N[C@@H](CC(C)C)C(=O)N[C@H]1C[C@H](CCCCCCCCc2ccccc2)C(=O)NCCC[C@@H](C(N)=O)NC(=O)[C@H]([C@@H](C)OP=O)NC(=O)[C@H](CO)NC1=O` (some centres unmarked) [15b, cPLE*SpTo] (HELM PEPTIDE1{[ac].P.L.[O=C([C@H](C[C@H](CCCCCCCCc1ccccc1)C(=O)[*:3])N[*:1])[*:2]].S.[C[C@@H](OP=O)[C@H](N[*:1])C(=O)[*:2]].[Orn].[am]}$PEPTIDE1,PEPTIDE1,4:R3-7:R3$$$V2.0), for which the “inhibitory potency in competitive ELISA versus parent peptide 1 (4j)” value at full-length Plk1 was “dramatic reductions in potency”.

For `CC(=O)N1CCC[C@H]1C(=O)N[C@@H](CC(C)C)C(=O)N[C@H]1C[C@H](CCCCCCCCc2ccccc2)C(=O)NCCCC[C@@H](C(N)=O)NC(=O)[C@H]([C@@H](C)OP=O)NC(=O)[C@H](CO)NC1=O` (some centres unmarked) [15c, cPLE*SpTK] (HELM PEPTIDE1{[ac].P.L.[O=C([C@H](C[C@H](CCCCCCCCc1ccccc1)C(=O)[*:3])N[*:1])[*:2]].S.[C[C@@H](OP=O)[C@H](N[*:1])C(=O)[*:2]].K.[am]}$PEPTIDE1,PEPTIDE1,4:R3-7:R3$$$V2.0), the “inhibitory potency in competitive ELISA versus parent peptide 1 (4j)” value at full-length Plk1 is given as “improved potencies versus the parent peptide 1”.

For `CC(=O)N1CCC[C@H]1C(=O)N[C@@H](CC(C)C)C(=O)N[C@H]1C[C@H](CCCCCCCCc2ccccc2)C(=O)NCCCC[C@H](C(N)=O)NC(=O)[C@H]([C@@H](C)OP=O)NC(=O)[C@H](CO)NC1=O` (some centres unmarked) [15d, cPLE*SpTk] (HELM PEPTIDE1{[ac].P.L.[O=C([C@H](C[C@H](CCCCCCCCc1ccccc1)C(=O)[*:3])N[*:1])[*:2]].S.[C[C@@H](OP=O)[C@H](N[*:1])C(=O)[*:2]].[dK].[am]}$PEPTIDE1,PEPTIDE1,4:R3-7:R3$$$V2.0), the “inhibitory potency in competitive ELISA versus parent peptide 1 (4j)” value at full-length Plk1 is reported as “dramatic reductions in potency”.

`CC(=O)N1CCC[C@H]1C(=O)N[C@@H](CC(C)C)C(=O)N[C@@H](Cc1cncn1CCCCCCCCc1ccccc1)C(=O)N[C@@H](CO)C(=O)N[C@H](C(N)=O)[C@@H](Cc1ccccc1)CP(=O)(O)O` [18d] (HELM PEPTIDE1{[ac].P.L.[O=C([C@H](Cc1cncn1CCCCCCCCc1ccccc1)N[*:1])[*:2]].S.[O=C([C@@H](N[*:1])[C@@H](Cc1ccccc1)CP(=O)(O)O)[*:2]].[am]}$$$$V2.0; N-terminus assumed): the IC50 against Plk1 PBD [2] is 300 ± 80 nM.

`CC(=O)N1CCC[C@H]1C(=O)N[C@@H](CC(C)C)C(=O)N[C@@H](Cc1cncn1CCCCCCCCc1ccccc1)C(=O)N[C@@H](CO)C(=O)N[C@H](C(N)=O)[C@@H](CCc1ccccc1)CP(=O)(O)O` [18e] (HELM PEPTIDE1{[ac].P.L.[O=C([C@H](Cc1cncn1CCCCCCCCc1ccccc1)N[*:1])[*:2]].S.[O=C([C@@H](N[*:1])[C@@H](CCc1ccccc1)CP(=O)(O)O)[*:2]].[am]}$$$$V2.0; N-terminus assumed) came in with an IC50 against Plk1 PBD [2] of 70 ± 20 nM.

For the molecule `CC(=O)N1CCCC1C(=O)N[C@@H](CC(C)C)C(=O)N[C@@H](Cc1cncn1CCc1ccccc1)C(=O)N[C@@H](CO)C(=O)NC(C(N)=O)C(C)CP(=O)(O)O` (some centres unmarked) [compound 4], at Plk1 PBD [1] (Table 6), the IC50 was 0.02 µM.

Take `CC(=O)N1CCCC1C(=O)N[C@@H](CC(C)C)C(=O)N[C@@H](Cc1cnc[nH]1)C(=O)N[C@@H](CO)C(=O)NC(C(N)=O)[C@@H](Cc1ccccc1)CP(=O)(O)O` (some centres unmarked) [compound 15] (HELM PEPTIDE1{[ac].[O=C(C1CCCN1[*:1])[*:2]].L.H.S.[O=C(C(N[*:1])[C@@H](Cc1ccccc1)CP(=O)(O)O)[*:2]].[am]}$$$$V2.0): on Plk1 PBD [1] (setting [3]), the IC50 came out at 50 µM.

On to `CC(=O)N1CCCC1C(=O)N[C@@H](CC(C)C)C(=O)N[C@@H](Cc1cncn1CCc1ccccc1)C(=O)N[C@@H](CO)C(=O)NC(C(N)=O)[C@@H](Cc1ccccc1)CP(=O)(O)O` (some centres unmarked) [compound 16], for which the IC50 on Plk1 PBD [1] (setting [3]) stood at 0.035 µM.
